For four compounds, Km results are on record in article PMC5457731, “Molecular cloning, expression, and characterization of four novel thermo-alkaliphilic enzymes retrieved from a metagenomic library” (Biotechnology for Biofuels, 2017).

The structures appear in SMILES notation.

Assay in all cases: pNP release at […] nm, Lineweaver-Burk
Common to all, as to settings: 50 mM Tris-HCl pH 7.5, 40 °C, 15 min

The test system of experiment [1] is T1, protein 2 (gene 2 product, fosmid T5-5).
T1 construct: full-length, pET28b(+) His-tags at N and C termini, E. coli Origami2(DE3) pLysS, ~85 kDa, gene amplicon 2410 bp
In kind it is biochemical, uncultured bacterium.

The test system of experiment [2] is T2, protein 5 (gene 5 product, fosmid 10BT).
T2 construct: full-length, pET28b(+) His-tags at N and C termini, E. coli Origami2(DE3) pLysS, ~45 kDa, gene amplicon 1262 bp; alpha-glucosidase assignment unusual, host contaminant possible
In kind it is biochemical.

The subject of experiment [3] is T3, protein 6 (gene 6 product, fosmid NT18-17).
T3 construct: full-length, pET28b(+) His-tags at N and C termini, E. coli Origami2(DE3) pLysS, ~22 kDa, gene amplicon 673 bp; alpha-glucosidase assignment unusual, host contaminant possible
In kind it is biochemical.

The subject of experiment [4] is T4, protein 1 (gene 1 product, fosmid NT2-2).
T4 construct: full-length, pET28b(+) His-tags at N and C termini, E. coli Origami2(DE3) pLysS, ~116 kDa, gene amplicon 3146 bp
In kind it is biochemical, uncultured bacterium.

In the case of `O=[N+]([O-])c1ccc(O[C@@H]2OC[C@@H](O)[C@H](O)[C@H]2O)cc1` [pNP-β-D-xylopyranoside], the Km (commonly the substrate concentration at which the rate is half of its maximum) in experiment [1] came to 1000 µM. On to `O=[N+]([O-])c1ccc(O[C@@H]2OC[C@H](O)[C@H](O)[C@H]2O)cc1` [pNP-α-L-arabinopyranoside], for which, in experiment [1], the Km turned out to be 300 µM.

Take `O=[N+]([O-])c1ccc(O[C@H]2O[C@H](CO)[C@@H](O)[C@H](O)[C@H]2O)cc1` [pNP-α-D-glucopyranoside]: the Km amounted to 7400 µM in experiment [2] and 21400 µM in experiment [3]. As to `O=[N+]([O-])c1ccc(O[C@@H]2O[C@H](CO)[C@H](O)[C@H](O)[C@H]2O)cc1` [pNP-β-D-galactopyranoside], in experiment [4], the Michaelis constant (Km) was found to be 100 µM.
